Measurements published in patent publication US6642392B1 (priority 1997, dated 2003).
Read-outs that look alike come from different tables or passages of the source.

Columns and labels:
Type in all cases: in vivo
Phytophthora infestans = conditions: for Test D disease control rating: tomato late blight; for Test D disease control rating (100 = 100% disease control, 0 = no disease control): tomato seedlings sprayed to run-off, inoculated the following day, rating relative to controls, unmarked compounds (standard test rate)
[1] = system: Eiysiphe graminis f. sp. tritici; experiment: Test A: wheat powdery mildew, preventive spray on wheat seedlings; conditions: for Test A disease control rating: wheat powdery mildew; for Test A disease control rating (100 = 100% disease control, 0 = no disease control): wheat seedlings sprayed to run-off, inoculated the following day, rating relative to controls, unmarked compounds (standard test rate)
In short: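 Compounds (3% acetone, 250 ppm Trem 014) sprayed to run-off on wheat seedlings, inoculated next day with spore dust. Incubated 7 days at 20° C before disease rating, 0–100% control relative to untreated controls.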

Pyricularia oryzae = conditions: for Test C disease control rating: rice blast; for Test C disease control rating (100 = 100% disease control, 0 = no disease control): rice seedlings sprayed to run-off, inoculated the following day, rating relative to controls, unmarked compounds (standard test rate)
Botrytis cinerea = experiment: Test E: gray mold, preventive spray on cucumber seedlings; conditions: for Test E disease control rating: gray mold on cucumber; for Test E disease control rating (100 = 100% disease control, 0 = no disease control): cucumber seedlings sprayed to run-off, inoculated the following day, rating relative to controls, unmarked compounds (standard test rate)
In short: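 Compounds in 3% acetone were suspended with 250 ppm Trem 014 surfactant and sprayed to run-off on cucumber seedlings. B. cinerea spores were inoculated next day, then 48 h saturated humidity at 20° C and 5 days at 20° C. Disease control rated 0–100% versus controls.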

Puccinia recondita = experiment: Test B: wheat leaf rust, preventive spray on wheat seedlings; conditions: for Test B disease control rating: wheat leaf rust; for Test B disease control rating (100 = 100% disease control, 0 = no disease control): wheat seedlings sprayed to run-off, inoculated the following day, rating relative to controls, unmarked compounds (standard test rate)
In short: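 Wheat seedlings were sprayed to run-off with compound (3% acetone, 250 ppm Trem 014), then inoculated with P. recondita spores the next day. They were held 24 h saturated at 20 °C, then 6 days at 20 °C. Ratings are 0–100% disease control versus controls.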

[2] = 100 = 100% disease control, 0 = no control, unmarked entries (standard test concentration)
[3] = 100 = 100% disease control, 0 = no control relative to controls, unmarked entries (standard test concentration)

Row | SMILES | Test D disease control rating (Phytophthora infestans; [2]) [%] | Test A disease control rating [1, 3] [%] | Test C disease control rating (Pyricularia oryzae; [2]) [%] | Test E disease control rating (Botrytis cinerea; [2]) [%] | Test B disease control rating (Puccinia recondita; [2]) [%] | also measured
1 | CC(COc1ccccc1OC(F)(F)C(F)F)NC(=O)C(C#N)C(C)(C)C (mixture of isomers) [compound 201] | 46 | 90 | 53 | 0 | 0 | –
2 | CC(COc1ccccc1I)NC(=O)C(C#N)C(C)(C)C (mixture of isomers) [11a] | 0 | 77 | 97 | 82 | 0 | –
3 | C[C@H](COc1cc(F)cc(F)c1)NC(=O)C(C#N)C(C)(C)C (single isomer, unassigned) [184b] | 9 | 62 | 74 | 45 | 0 | –
4 | C#CC(C)(C=C)C(C#N)C(=O)NC(C)COc1cc(F)ccc1F (mixture of isomers) [compound 301] | – | – | – | – | – | Test D disease control rating (100 = 100% disease control, 0 = no disease control) (Phytophthora infestans): 24%; Test A disease control rating (100 = 100% disease control, 0 = no disease control) [1]: 62%; Test C disease control rating (100 = 100% disease control, 0 = no disease control) (Pyricularia oryzae): 100%; Test E disease control rating (100 = 100% disease control, 0 = no disease control) (Botrytis cinerea): 0%; Test B disease control rating (100 = 100% disease control, 0 = no disease control) (Puccinia recondita): 0%
5 | CCC1(C(=O)NC(C)COc2cccc(F)c2F)C(C)C1(Cl)Cl (stereo not shown) [compound 104] | – | – | – | – | – | Test D disease control rating (Phytophthora infestans; tested at 40 ppm): 0%; Test A disease control rating ([1]; tested at 40 ppm): 84%; Test C disease control rating (Pyricularia oryzae; tested at 40 ppm): 97%; Test E disease control rating (Botrytis cinerea; tested at 40 ppm): 0%; Test B disease control rating (Puccinia recondita; tested at 40 ppm): 0%
6 | C[C@H](COc1ccc(Cl)cc1F)NC(=O)C(C#N)C(C)(C)C (single isomer, unassigned) [36b] | 80 | 62 | 100 | 0 | 27 | –
7 | CCC1(C(=O)NC(C)COc2ccccc2C(C)(C)C)C(C)C1(Cl)Cl (stereo not shown) [compound 100] | – | – | – | – | – | Test D disease control rating (Phytophthora infestans; tested at 40 ppm): 0%; Test A disease control rating ([1]; tested at 40 ppm): 52%; Test C disease control rating (Pyricularia oryzae; tested at 40 ppm): 0%; Test E disease control rating (Botrytis cinerea; tested at 40 ppm): 0%; Test B disease control rating (Puccinia recondita; tested at 40 ppm): 0%
8 | CCC1(C(=O)NC(C)COc2ccc(F)cc2Br)C(C)C1(Cl)Cl (stereo not shown) [compound 124] | – | – | – | – | – | Test D disease control rating (Phytophthora infestans; tested at 40 ppm): 0%; Test A disease control rating ([1]; tested at 40 ppm): 83%; Test C disease control rating (Pyricularia oryzae; tested at 40 ppm): 0%; Test E disease control rating (Botrytis cinerea; tested at 40 ppm): 0%; Test B disease control rating (Puccinia recondita; tested at 40 ppm): 0%
9 | C[C@H](COc1cc(Cl)cc(Cl)c1Cl)NC(=O)C(C#N)C(C)(C)C (single isomer, unassigned) [170a] | 0 | 35 | 53 | 58 | 0 | –
10 | CC(COc1cccc(F)c1)NC(=O)C(C#N)C(C)(C)C (single isomer, unassigned) [3c] | 4 | 38 | 100 | 0 | 0 | –
11 | CC(COc1cccc(F)c1C#N)NC(=O)C(C#N)C(C)(C)C (mixture of isomers) [compound 39] | 2 | 0 | 86 | 0 | 0 | –
12 | C=CCc1cc(C)ccc1OCC(C)NC(=O)C(C#N)C(C)(C)C (mixture of isomers) [compound 185] | 9 | 0 | 86 | 45 | 28 | –
13 | CCC1(C(=O)NC(C)COc2ccc(F)c(F)c2)C(C)C1(Cl)Cl (stereo not shown) [compound 108] | – | – | – | – | – | Test D disease control rating (Phytophthora infestans; tested at 40 ppm): 0%; Test A disease control rating ([1]; tested at 40 ppm): 57%; Test C disease control rating (Pyricularia oryzae; tested at 40 ppm): 94%; Test E disease control rating (Botrytis cinerea; tested at 40 ppm): 0%; Test B disease control rating (Puccinia recondita; tested at 40 ppm): 0%
14 | C[C@H](COc1cccc(F)c1F)NC(=O)C(C#N)C(C)(C)C (single isomer, unassigned) [26b] | 81 | 38 | 100 | 0 | 68 | –
15 | CC(COc1c(F)ccc(F)c1C#N)NC(=O)C(C#N)C(C)(C)C (mixture of isomers) [compound 208] | 45 | 0 | 94 | 0 | 28 | –
16 | Cc1ccccc1OCC(C)NC(=O)C(C#N)C(C)(C)C (mixture of isomers) [compound 19] | 0 | 0 | 97 | 0 | 0 | –
17 | C[C@H](COc1ccc(F)c(F)c1)NC(=O)C(C#N)C(C)(C)C (single isomer, unassigned) [30a] | 0 | 0 | 100 | 0 | 0 | –
18 | C[C@H](COc1ccccc1Br)NC(=O)C(C#N)C(C)(C)C (single isomer, unassigned) [8b] | 89 | 37 | 100 | 47 | 0 | –
19 | C[C@H](COc1c(F)cc(F)cc1F)NC(=O)C(C#N)C(C)(C)C (single isomer, unassigned) [189a] | 0 | 0 | 97 | 6 | 0 | –
20 | CCCc1ccccc1OCC(C)NC(=O)C1(CC)C(C)C1(Cl)Cl (stereo not shown) [98b] | – | – | – | – | – | Test D disease control rating (Phytophthora infestans; tested at 40 ppm): 0%; Test A disease control rating ([1]; tested at 40 ppm): 52%; Test C disease control rating (Pyricularia oryzae; tested at 40 ppm): 74%; Test E disease control rating (Botrytis cinerea; tested at 40 ppm): 0%; Test B disease control rating (Puccinia recondita; tested at 40 ppm): 0%
21 | CCC1(C(=O)NC(C)COc2ccccc2I)C(C)C1(Cl)Cl (mixture of isomers) [87b] | – | – | – | – | – | Test D disease control rating (Phytophthora infestans; tested at 40 ppm): 0%; Test A disease control rating ([1]; tested at 40 ppm): 52%; Test C disease control rating (Pyricularia oryzae; tested at 40 ppm): 0%; Test E disease control rating (Botrytis cinerea; tested at 40 ppm): 0%; Test B disease control rating (Puccinia recondita; tested at 40 ppm): 0%
22 | CCC1(C(=O)NC(C)CCn2cc(Cl)cc2C#N)C(C)C1(Cl)Cl (mixture of isomers) [compound 144] | 0 | 0 | 53 | 0 | 28 | –
23 | CC(COc1ccc(Cl)cc1)NC(=O)C(C#N)C(C)(C)C (single isomer, unassigned) [7b] | 89 | 77 | 74 | 47 | 0 | –
24 | CCC1(C(=O)NC(C)COc2c(F)cc(F)cc2F)C(C)C1(Cl)Cl (stereo not shown) [compound 237] | – | – | – | – | – | Test D disease control rating (100 = 100% disease control, 0 = no disease control) (Phytophthora infestans): 9%; Test A disease control rating (100 = 100% disease control, 0 = no disease control) [1]: 62%; Test C disease control rating (100 = 100% disease control, 0 = no disease control) (Pyricularia oryzae): 53%; Test E disease control rating (100 = 100% disease control, 0 = no disease control) (Botrytis cinerea): 0%; Test B disease control rating (100 = 100% disease control, 0 = no disease control) (Puccinia recondita): 0%
25 | C[C@H](COc1c(Cl)ccc(Cl)c1Cl)NC(=O)C(C#N)C(C)(C)C (single isomer, unassigned) [171a] | 0 | 0 | 86 | 0 | 0 | –
26 | CCC1(C(=O)NC(C)COc2ccccc2F)C(C)C1(Cl)Cl (mixture of isomers) [78a] | 0 | 0 | 90 | 74 | 93 | –
27 | CC(COc1cccc(Cl)c1)NC(=O)C(C#N)C(C)(C)C (single isomer, unassigned) [6c] | 9 | 0 | 97 | 0 | 0 | –
28 | CCC1(C(=O)NC(C)COc2cccc(CF)c2)C(C)C1(Cl)Cl (mixture of isomers) [compound 93] | – | – | – | – | – | Test D disease control rating (Phytophthora infestans; tested at 40 ppm): 19%; Test A disease control rating ([1]; tested at 40 ppm): 57%; Test C disease control rating (Pyricularia oryzae; tested at 40 ppm): 85%; Test E disease control rating (Botrytis cinerea; tested at 40 ppm): 0%; Test B disease control rating (Puccinia recondita; tested at 40 ppm): 0%
29 | Cc1c(Cl)cc(C#N)n1OCC(C)NC(=O)C(C#N)C(C)C(C)(C)C (mixture of isomers) [71a] | 19 | 0 | 53 | 0 | 0 | –
